# Reference: US20250017914A1, “6-AZA-QUINOLINE DERIVATIVES AND RELATED USES” (Black Diamond Therapeutics, Inc., priority 2021, published 2025)
# Target: T1, BaF3 BRAF-KIAA1549 fusion cells (Homo sapiens, UniProt P15056)
# T1 construct: The BRAF-KIAA1549 fusion mutant was subcloned into pMXs-IRES-Blasticidin (RTV-016, Cell Biolabs, San Diego, CA); No tag given; Q9HCM3 (UPF0606 protein KIAA1549)
# Test: BaF3 BRAF-KIAA1549 fusion cell proliferation assay (CellTiterGlo, 96 hours)
# Format: cell-based
# Procedure: Retroviral Production: The BRAF-KIAA1549 fusion mutant was subcloned into pMXs-IRES-Blasticidin (RTV-016, Cell Biolabs, San Diego, CA). Retrovirus was produced by transfection of HEK 293T cells with the retroviral BRAF mutant expression vector pMXs-IRES-Blasticidin (RTV-016, Cell Biolabs), pCMV-Gag-Pol vector and pCMV-VSV-G-Envelope vector. Briefly, HEK 293T cells were plated in Poly-D-lysine coated 6-well plate (2.5×10^5 cells per well) and incubated overnight. The next day, retroviral plasmids (1 μg of BRAF-KIAA fusion mutant, 0.32 μg of pCMV-Gag-Pol and 0.165 μg pCMV-VSV-G) were mixed in 300 μL of Optimem (31985, Life Technologies). The mixture was incubated at room temperature for 5 minutes and then added to Optimem containing transfection reagent Lipofectamine (11668, Invitrogen) and incubated for 20 minutes. The mixture was then added dropwise to HEK 293T cells. The next day the medium was replaced with fresh culture medium and retrovirus was harvested at 24 hours.
# Generation of BRAF-KIAA1549 fusion stable cell line: BaF3 cells were plated in V-bottom 96 well plate (COSTAR #3894) in 80 μL of RPMI/10% FBS and 0.01 ng/mL mouse IL-3, supplemented with 8 μg/mL polybrene (4×10^4 cells/well). Cells were transduced with 20 μL of BRAF-KIAA1549 fusion viral supernatant by centrifuging for 30 minutes at 1000 rpm. Cells were placed in a 37° C. incubator overnight. Next day 100 μL of RPMI/10% FBS and 0.01 ng/mL mouse IL-3 was added. After 24 hours, 100 μL of cells were transferred to a 24 well plate containing 900 μL of RPM/10% FBS and 15 μg/mL Blasticidin. Contents of the 24 well plate were sampled for cell viability via CellTiterGlo (Promega) over a 2-week period.
# Assay for cell proliferation: BaF3 BRAF-KIAA1549 fusion cells were resuspended at 1.5×10^5 c/mL in RPMI containing 10% Heat Inactivated FBS, 1% L-glutamine and dispensed in duplicate (7×10^4 c/well) into 384 well plates. To determine the effect of compound on cell proliferation, BaF3 BRAF-KIAA1549 fusion cells were incubated for 96 hours in the presence of vehicle control (DMSO) or compound at varying concentrations. Inhibition of cell growth was determined by luminescent quantification (Envision by Perkin Elmer) of intracellular ATP content using CellTiterGlo (Promega), according to the protocol provided by the manufacturer. To determine the IC50 values, the vehicle-treated cells were normalized as viable cells and analyzed using the CDD Vault, Collaborative Drug Discovery, Burlingame, CA (the Levenberg-Marquardt algorithm; Levenberg, K., […]; Marquardt, D., 1963).
# Tables A1 and A2 assign each compound a code for potency in the BaF3 BRAF-KIAA1549 fusion cell proliferation assay: A, B, C, or D. According to the code, A represents an IC50 value <20 nM; B represents an IC50 value ≥20 nM and <100 nM; C represents an IC50 value ≥100 nM and <500 nM; and D represents an IC50 value ≥500 nM.
# T1 sequence (P15056 whole entry, change not shown, the tested form may be a part): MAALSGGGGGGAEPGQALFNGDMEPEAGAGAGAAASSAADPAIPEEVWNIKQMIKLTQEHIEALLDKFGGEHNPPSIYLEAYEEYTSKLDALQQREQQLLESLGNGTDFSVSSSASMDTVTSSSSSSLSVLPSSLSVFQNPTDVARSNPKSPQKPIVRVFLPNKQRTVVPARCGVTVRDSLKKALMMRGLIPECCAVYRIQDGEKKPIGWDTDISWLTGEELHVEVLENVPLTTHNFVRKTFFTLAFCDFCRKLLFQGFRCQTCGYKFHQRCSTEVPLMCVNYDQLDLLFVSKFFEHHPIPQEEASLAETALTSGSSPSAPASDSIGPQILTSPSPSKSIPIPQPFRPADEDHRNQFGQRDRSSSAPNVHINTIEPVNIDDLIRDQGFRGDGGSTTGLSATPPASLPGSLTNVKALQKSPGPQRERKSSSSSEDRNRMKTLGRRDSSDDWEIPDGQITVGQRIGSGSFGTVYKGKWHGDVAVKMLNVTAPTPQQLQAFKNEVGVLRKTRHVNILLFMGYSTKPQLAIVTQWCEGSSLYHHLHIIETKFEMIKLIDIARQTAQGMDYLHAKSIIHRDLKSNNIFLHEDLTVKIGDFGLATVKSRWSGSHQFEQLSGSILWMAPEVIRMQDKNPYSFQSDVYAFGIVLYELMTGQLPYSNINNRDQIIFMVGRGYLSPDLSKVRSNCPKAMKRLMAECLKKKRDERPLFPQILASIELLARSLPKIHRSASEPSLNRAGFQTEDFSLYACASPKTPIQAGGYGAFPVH
SMILES,GI50 (Table A1) [µM],GI50 (Table A2) [µM]
"CNc1cc2ncc(-c3cc(NC(=O)c4ccnc(C(C)C)c4)cnc3C)cc2cn1 [Compound 57, 2-Isopropyl-N-(6-methyl-5-(7-(methylamino)-1,6-naphthyridin-3-yl)pyridin-3-yl)isonicotinamide]",< 0.02,–
"CNc1cc2ncc(-c3cc(NC(=O)c4cnc5n4CCCC5)cnc3C)cc2cn1 [Compound 209, N-(6-methyl-5-(7-(methylamino)-1,6-naphthyridin-3-yl)pyridin-3-yl)-5,6,7,8-tetrahydroimidazo[1,2-a]pyridine-3-carboxamide]",–,≥ 0.5
"CNc1cc2ncc(-c3cc(NC(=O)c4noc5c4CCCC5)ccc3C)cc2cn1 [Compound 228, N-(4-methyl-3-(7-(methylamino)-1,6-naphthyridin-3-yl)phenyl)-4,5,6,7-tetrahydrobenzo[d]isoxazole-3-carboxamide]",–,0.1 to 0.5
"CNc1cc2ncc(-c3cc(NC(=O)c4cc(C(C)(F)F)ccn4)ccc3C)cc2cn1 [Compound 12, 4-(1,1-Difluoroethyl)-N-(4-methyl-3-(7-(methylamino)-1,6-naphthyridin-3-yl)phenyl)picolinamide]",0.02 to 0.1,–
"CNc1cc2ncc(-c3cc(NC(=O)c4n[nH]c5c4CCCC5(C)C)ccc3C)cc2cn1 [Compound 262, 7,7-dimethyl-N-(4-methyl-3-(7-(methylamino)-1,6-naphthyridin-3-yl)phenyl)-4,5,6,7-tetrahydro-1H-indazole-3-carboxamide]",–,0.02 to 0.1
"CNc1cc2ncc(-c3cc(NC(=O)c4cnc5n4C[C@H](C)CC5)cnc3C)cc2cn1 (single isomer, unassigned) [Compound 259]",–,0.02 to 0.1
"CNc1cc2ncc(-c3cc(NC(=O)c4ccnc(C(F)F)c4)cnc3C)cc2cn1 [Compound 28, 2-(Difluoromethyl)-N-(6-methyl-5-(7-(methylamino)-1,6-naphthyridin-3-yl)pyridin-3-yl)isonicotinamide]",0.1 to 0.5,–
"CCNc1cc2ncc(-c3cc(NC(=O)c4cc(C(C)(C)C#N)ccn4)cnc3C)cc2cn1 [Compound 175, 4-(2-cyanopropan-2-yl)-N-(5-(7-(ethylamino)-1,6-naphthyridin-3-yl)-6-methylpyridin-3-yl)picolinamide]",0.02 to 0.1,–
"CNc1cc2ncc(-c3cc(NC(=O)c4c[nH]c5ccccc45)cnc3C)cc2cn1 [Compound 194, N-(6-methyl-5-(7-(methylamino)-1,6-naphthyridin-3-yl)pyridin-3-yl)-1H-indole-3-carboxamide]",–,0.02 to 0.1
"CNc1cc2ncc(-c3cc(NC(=O)c4cccc5c4CCCC5=O)cnc3C)cc2cn1 [Compound 198, N-(6-methyl-5-(7-(methylamino)-1,6-naphthyridin-3-yl)pyridin-3-yl)-5-oxo-5,6,7,8-tetrahydronaphthalene-1-carboxamide]",–,≥ 0.5
"CNc1cc2ncc(-c3cc(NC(=O)c4cc(C(F)(F)F)ccn4)ccc3C)cc2cn1 [Compound 1, N-(4-methyl-3-(7-(methylamino)-1,6-naphthyridin-3-yl)phenyl)-4-(trifluoromethyl)picolinamide]",< 0.02,–
"CNc1cc2ncc(-c3ccc(F)c(NC(=O)c4cc(C(C)(C)C#N)ccn4)c3)cc2cn1 [Compound 45, 4-(2-Cyanopropan-2-yl)-N-(2-fluoro-5-(7-(methylamino)-1,6-naphthyridin-3-yl)phenyl)picolinamide]",0.1 to 0.5,–
"CNc1cc2ncc(-c3cc(NC(=O)c4noc5c4CN(C(C)C)CC5)cnc3C)cc2cn1 [Compound 254, 5-isopropyl-N-(6-methyl-5-(7-(methylamino)-1,6-naphthyridin-3-yl)pyridin-3-yl)-4,5,6,7-tetrahydroisoxazolo[4,5-c]pyridine-3-carboxamide]",–,0.1 to 0.5
"CNc1cc2ncc(-c3cc(NC(=O)c4cc(C(C)(C)C#N)ccn4)cc(F)c3Cl)cc2cn1 [Compound 44, N-(4-chloro-3-fluoro-5-(7-(methylamino)-1,6-naphthyridin-3-yl)phenyl)-4-(2-cyanopropan-2-yl)picolinamide]",0.02 to 0.1,–
"CNc1cc2ncc(-c3cc(NC(=O)c4ccccc4NC(C)C(F)F)cnc3C)cc2cn1 (stereo not shown) [Compound 226, 2-((1,1-difluoropropan-2-yl)amino)-N-(6-methyl-5-(7-(methylamino)-1,6-naphthyridin-3-yl)pyridin-3-yl)benzamide]",–,0.02 to 0.1
"CNc1cc2ncc(-c3cc(NC(=O)C[C@H]4C[C@H](C(F)(F)F)CCO4)cnc3C)cc2cn1 (single isomer, unassigned) [Compound 36]",0.1 to 0.5,–

# The next lines start with the values.
GI50 (Table A1) [µM],GI50 (Table A2) [µM],SMILES
–,0.02 to 0.1,"CNc1cc2ncc(-c3cc(NC(=O)c4cnc5n4CC(C(F)(F)F)CC5)ccc3C)cc2cn1 (stereo not shown) [Compound 220, N-(4-methyl-3-(7-(methylamino)-1,6-naphthyridin-3-yl)phenyl)-6-(trifluoromethyl)-5,6,7,8-tetrahydroimidazo[1,2-a]pyridine-3-carboxamide]"
0.02 to 0.1,–,"CNc1cc2ncc(-c3cc(NC(=O)c4ccnc(C5CC(F)(F)C5)c4)cnc3C)cc2cn1 [Compound 34, 2-(3,3-Difluorocyclobutyl)-N-(6-methyl-5-(7-(methylamino)-1,6-naphthyridin-3-yl)pyridin-3-yl)isonicotinamide]"
–,0.1 to 0.5,"CNc1cc2ncc(-c3cc(NC(=O)c4cnc5n4CC(C(F)F)CC5)cnc3C)cc2cn1 (stereo not shown) [Compound 251, 6-(difluoromethyl)-N-(6-methyl-5-(7-(methylamino)-1,6-naphthyridin-3-yl)pyridin-3-yl)-5,6,7,8-tetrahydroimidazo[1,2-a]pyridine-3-carboxamide]"
–,≥ 0.5,"CNc1cc2ncc(-c3cc(NC(=O)c4cccc5c4CCCC5O)cnc3C)cc2cn1 (stereo not shown) [Compound 199, 5-hydroxy-N-(6-methyl-5-(7-(methylamino)-1,6-naphthyridin-3-yl)pyridin-3-yl)-5,6,7,8-tetrahydronaphthalene-1-carboxamide]"
< 0.02,–,"CNc1cc2ncc(-c3cc(NC(=O)c4cc(C(C)(C)C#N)ccn4)cnn3)cc2cn1 [Compound 49, 4-(2-Cyanopropan-2-yl)-N-(6-(7-(methylamino)-1,6-naphthyridin-3-yl)pyridazin-4-yl)picolinamide]"
0.02 to 0.1,–,"CNc1cc2ncc(-c3cc(NC(=O)c4cc(C(F)(F)F)ccn4)nnc3C)cc2cn1 [Compound 75, N-(6-methyl-5-(7-(methylamino)-1,6-naphthyridin-3-yl)pyridazin-3-yl)-4-(trifluoromethyl)picolinamide]"
0.1 to 0.5,–,"CNc1cc2ncc(-c3cc(NC(=O)[C@@H](C)n4cnc(C(F)(F)F)n4)ccc3C)cc2cn1 (single isomer, unassigned) [Compound 69]"
–,< 0.02,"CNc1cc2ncc(-c3cc(NC(=O)c4cccc(C(C)(C)C#N)c4)ccc3C)cc2cn1 [Compound 193, 3-(2-cyanopropan-2-yl)-N-(4-methyl-3-(7-(methylamino)-1,6-naphthyridin-3-yl)phenyl)benzamide]"
–,< 0.02,"CNc1cc2ncc(-c3cc(NC(=O)c4cc(C(NC)C(F)(F)F)ccn4)ccc3C)cc2cn1 (stereo not shown) [Compound 203, N-(4-methyl-3-(7-(methylamino)-1,6-naphthyridin-3-yl)phenyl)-4-(2,2,2-trifluoro-1-(methylamino)ethyl)picolinamide]"
0.02 to 0.1,–,"Cc1ccc(NC(=O)c2cc(C(F)F)ccn2)cc1-c1cnc2cc(NCCC#N)ncc2c1 [Compound 78, N-(3-(7-((2-cyanoethyl)amino)-1,6-naphthyridin-3-yl)-4-methylphenyl)-4-(difluoromethyl)picolinamide]"
–,≥ 0.5,"CNc1ncc2cc(-c3cc(NC(=O)c4ccnc(C(C)(C)C#N)c4)cnc3C)cnc2c1Cl [Compound 270, N-[5-[8-chloro-7-(methylamino)-1,6-naphthyridin-3-yl]-6-methyl-3-pyridyl]-2-(1-cyano-1-methyl-ethyl)pyridine-4-carboxamide]"
0.02 to 0.1,–,"CNc1cc2ncc(-c3cc(NC(=O)c4cc(C(F)F)ccn4)cnc3C)cc2cn1 [Compound 22, 4-(Difluoromethyl)-N-(6-methyl-5-(7-(methylamino)-1,6-naphthyridin-3-yl)pyridin-3-yl)picolinamide]"
